For assay [1], the target named is T1, human recombinant 5-HT2A receptor (Homo sapiens, UniProt P28223).
T1 construct: expressed in transfected cells; host or cells: NIH3T3
The experiment in a line: Affinity for 5-HT2A receptor binding sites (competitive radioligand binding, [3H]ketanserin). The conditions noted are these: membranes of NIH3T3 with h5-HT2A, * = tested as hydrochloride salt. Summed up: (§1)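 Membranes from NIH3T3 cells stably expressing h5-HT2A or CHO cells stably expressing h5-HT2B/h5-HT2C; [3H]ketanserin used for 5-HT2A, [3H]mesulergine for 5-HT2B/2C. Compounds from 10 mM DMSO stocks, final DMSO ≤0.4%. Affinity from sigmoidal inhibition curves fitted by nonlinear regression.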

Assay [2] has as its target T2, human recombinant 5-HT6 receptor (Homo sapiens, UniProt P50406).
T2 construct: expressed in transfected cells; host or cells: HEK-293
Put plainly: Affinity for 5-HT6 receptor binding sites (competitive radioligand binding, [3H]LSD). The conditions noted are these: membranes of HEK-293 with h5-HT6, * = tested as hydrochloride salt. Summed up: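 Membranes from HEK-293 cells stably expressing human 5-HT6, competition against [3H]LSD; nonspecific binding defined with 1 μM clozapine. DMSO ≤0.4% final. Inhibition curves fitted by nonlinear regression.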

The target of assay [3] is T3, human recombinant 5-HT2B receptor (Homo sapiens, UniProt P41595).
T3 construct: expressed in transfected cells; host or cells: CHO
T3 sequence (P41595 whole entry): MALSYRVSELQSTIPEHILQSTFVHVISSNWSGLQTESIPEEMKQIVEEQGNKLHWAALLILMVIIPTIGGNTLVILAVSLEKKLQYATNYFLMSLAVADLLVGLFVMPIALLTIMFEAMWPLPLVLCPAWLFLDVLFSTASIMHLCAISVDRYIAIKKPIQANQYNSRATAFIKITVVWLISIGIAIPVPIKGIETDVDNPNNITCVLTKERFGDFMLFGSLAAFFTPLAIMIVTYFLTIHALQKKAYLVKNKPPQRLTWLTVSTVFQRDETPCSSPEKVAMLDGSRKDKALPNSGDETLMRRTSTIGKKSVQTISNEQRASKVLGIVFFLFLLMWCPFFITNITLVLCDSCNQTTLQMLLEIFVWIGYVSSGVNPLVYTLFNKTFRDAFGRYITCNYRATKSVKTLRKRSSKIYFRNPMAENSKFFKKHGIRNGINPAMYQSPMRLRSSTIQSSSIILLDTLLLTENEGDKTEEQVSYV
Put plainly: Affinity for 5-HT2B receptor binding sites (competitive radioligand binding, [3H]mesulergine). The conditions noted are these: membranes of CHO with h5-HT2B, * = tested as hydrochloride salt. Summed up: as §1

Assay [4] concerns the target T4, rat 5-HT7a receptor (Rattus norvegicus, UniProt P32305).
T4 construct: expressed in transfected cells; host or cells: HEK-293
The experiment in a line: Affinity for 5-HT7 receptor binding sites (competition radioligand binding, [3H]5-CT). The conditions noted are these: membranes of HEK-293 cells with rat 5-HT7a; 1 nM [3H]5-CT; * = tested as hydrochloride salt. As for the experimental part: Stock drug solutions (10 mM) were prepared in DMSO (the final assay concentration of DMSO not exceeding 0.4%). Drug dilutions were prepared in assay buffer.
Sigmoidal inhibition curves were generated and fitted by nonlinear regression analysis (GraphPad Prism).
1. Affinity for 5-HT7 Receptor Binding Sites
The affinity of the compounds described in this invention for the 5-HT7 receptor binding site was evaluated by single competition radioligand binding assay. The assay was performed on membranes prepared from HEK-293 cells that had been subjected to stable transfection with the rat 5-HT7a receptor (GB: NM022938). Cells were scraped from the culture plates, suspended in Tris-HCl 50 mM pH 7.5 and collected through centrifugation (1000 rpm for 5 min). The cell pellets were homogenized (Polytron, 15 s, setting 5) in 50 mM Tris-HCl (pH 7.5), 5 mM EDTA. Following centrifugation (15,000 rpm for 25 min), membranes (135 μg protein/mL) were resuspended in the same buffer and incubated for 60 min at RT with 1 nM [^3H]5-CT in the presence of increasing concentration of test compounds. Nonspecific binding was defined in the presence of 10 μM 5-HT. Incubation was stopped by rapid filtration using the cell harvester (Packard). Radioactivity was counted in a TopCount-NXT (Packard). Experiments were conducted in triplicate.

For assay [5], the target named is T5, human recombinant 5-HT2C receptor (Homo sapiens, UniProt P28335).
T5 construct: expressed in transfected cells; host or cells: CHO
T5 sequence (P28335 33-458): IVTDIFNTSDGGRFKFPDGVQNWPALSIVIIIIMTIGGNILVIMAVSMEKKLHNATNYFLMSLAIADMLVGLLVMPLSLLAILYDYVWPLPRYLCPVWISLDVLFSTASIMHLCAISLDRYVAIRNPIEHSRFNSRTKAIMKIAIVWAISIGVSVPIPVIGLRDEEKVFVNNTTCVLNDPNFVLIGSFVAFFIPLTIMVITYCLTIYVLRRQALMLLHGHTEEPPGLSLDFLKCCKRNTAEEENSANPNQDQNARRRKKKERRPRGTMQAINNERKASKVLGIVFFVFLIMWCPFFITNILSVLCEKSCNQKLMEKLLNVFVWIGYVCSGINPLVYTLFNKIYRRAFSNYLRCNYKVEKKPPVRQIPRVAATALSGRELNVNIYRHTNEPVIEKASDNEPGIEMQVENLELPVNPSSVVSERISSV
Put plainly: Affinity for 5-HT2C receptor binding sites (competitive radioligand binding, [3H]mesulergine). The conditions noted are these: membranes of CHO with h5-HT2C, * = tested as hydrochloride salt. The procedure, abridged: as §1

Where a name gives a salt, the structure may show the parent alone.

T1 sequence (P28223 whole entry): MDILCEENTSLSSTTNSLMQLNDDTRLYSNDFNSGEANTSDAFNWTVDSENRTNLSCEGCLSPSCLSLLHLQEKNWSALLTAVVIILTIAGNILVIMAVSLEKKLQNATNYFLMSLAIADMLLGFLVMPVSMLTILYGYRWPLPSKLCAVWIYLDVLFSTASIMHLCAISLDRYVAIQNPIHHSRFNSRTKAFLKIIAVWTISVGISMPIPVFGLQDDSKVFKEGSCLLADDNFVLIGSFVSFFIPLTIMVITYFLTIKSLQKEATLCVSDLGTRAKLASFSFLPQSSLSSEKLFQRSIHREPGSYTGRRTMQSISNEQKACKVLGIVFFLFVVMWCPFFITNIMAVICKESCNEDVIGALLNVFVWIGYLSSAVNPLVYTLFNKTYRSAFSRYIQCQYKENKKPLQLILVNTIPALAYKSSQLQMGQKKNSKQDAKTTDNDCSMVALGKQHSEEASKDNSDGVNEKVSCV
T2 sequence (P50406 whole entry): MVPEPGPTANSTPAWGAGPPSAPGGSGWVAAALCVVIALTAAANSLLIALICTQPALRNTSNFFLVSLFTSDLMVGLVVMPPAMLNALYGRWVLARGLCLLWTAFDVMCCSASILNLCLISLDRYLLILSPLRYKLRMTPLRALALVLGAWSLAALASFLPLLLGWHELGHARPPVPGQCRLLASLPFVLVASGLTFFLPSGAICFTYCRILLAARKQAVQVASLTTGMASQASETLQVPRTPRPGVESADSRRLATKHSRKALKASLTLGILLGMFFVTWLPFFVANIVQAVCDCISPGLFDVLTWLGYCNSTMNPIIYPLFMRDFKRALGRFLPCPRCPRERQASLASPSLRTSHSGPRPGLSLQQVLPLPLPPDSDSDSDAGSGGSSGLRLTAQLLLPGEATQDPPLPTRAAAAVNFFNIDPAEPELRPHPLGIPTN
T4 sequence (P32305 whole entry): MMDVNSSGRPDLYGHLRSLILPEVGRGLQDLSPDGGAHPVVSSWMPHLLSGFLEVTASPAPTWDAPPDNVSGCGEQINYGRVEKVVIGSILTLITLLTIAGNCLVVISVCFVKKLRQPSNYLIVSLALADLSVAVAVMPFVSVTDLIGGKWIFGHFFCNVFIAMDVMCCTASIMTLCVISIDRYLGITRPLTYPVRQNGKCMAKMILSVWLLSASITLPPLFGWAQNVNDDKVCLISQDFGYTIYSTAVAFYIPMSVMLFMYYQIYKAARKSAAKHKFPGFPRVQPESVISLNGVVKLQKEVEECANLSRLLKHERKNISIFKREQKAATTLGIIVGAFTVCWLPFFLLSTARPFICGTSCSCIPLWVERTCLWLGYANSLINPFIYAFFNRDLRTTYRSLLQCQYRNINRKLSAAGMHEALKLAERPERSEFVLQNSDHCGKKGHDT

By Ki is commonly meant the dissociation constant of the complex between target and ligand, obtained from inhibition or displacement. With `CCN(CC)c1nc2c(c(-c3ccc(OC)cc3)n1)CCNCC2` [Example 13, Diethyl-[4-(4-methoxy-phenyl)-6,7,8,9-tetrahydro-5H-pyrimido[4,5-d]azepin-2-yl]-amine hydrochloride], the Ki in assay [1] was 10 nM; in assay [2] it was 28 nM; in assay [3] it was 0.8 nM; in assay [4] it was 32 nM; in assay [5] it was 40 nM.
`CCN(CC)c1nc2c(c(-c3ccc(C#N)cc3)n1)CCNCC2` [Example 14, 4-(2-Diethylamino-6,7,8,9-tetrahydro-5H-pyrimido[4,5-d]azepin-4-yl)-benzonitrile hydrochloride]: the Ki in assay [1] is 40 nM; in assay [2] it was 220 nM; in assay [3], 5 nM; in assay [4] it was 63 nM; in assay [5] it was 130 nM.
For the compound `CCN(CC)c1nc2c(c(-c3ccc(F)cc3)n1)CCNC2` [Example 24, Diethyl-[4-(4-fluoro-phenyl)-5,6,7,8-tetrahydro-pyrido[3,4-d]pyrimidin-2-yl]-amine], the inhibitory constant (Ki) in assay [1] was determined as 3 nM; in assay [2], 933 nM; in assay [3], 7 nM; in assay [4] it was 50 nM; in assay [5], 120 nM.
On to `CCN(CC)c1nc2c(c(-c3ccc(C)cc3)n1)CCNC2` [Example 26, Diethyl-(4-p-tolyl-5,6,7,8-tetrahydro-pyrido[3,4-d]pyrimidin-2-yl)-amine], for which the Ki in assay [1] was determined as 7 nM; in assay [2] it was 316 nM; in assay [3] it was 13 nM; in assay [4], 100 nM; in assay [5], 200 nM.
In the same order, the values of `CCN(CC)c1nc2c(c(-c3ccc(OC)cc3)n1)CCNC2` [Example 28, Diethyl-[4-(4-methoxy-phenyl)-5,6,7,8-tetrahydro-pyrido[3,4-d]pyrimidin-2-yl]-amine] are 70 nM, 1510 nM, 15 nM, 130 nM and 280 nM.
In the same order, the values of `CCN(CC)c1nc2c(c(-c3ccc(C#N)cc3)n1)CCNC2` [Example 30, 4-(2-Diethylamino-5,6,7,8-tetrahydro-pyrido[3,4-d]pyrimidin-4-yl)-benzonitrile] are 48 nM, 3720 nM, 60 nM, 300 nM and 1400 nM.
With `CC1CCCN1c1nc2c(c(-c3ccc(F)cc3)n1)CNCC2` (stereo not shown) [Example 38, 4-(4-Fluoro-phenyl)-2-(2-methyl-pyrrolidin-1-yl)-5,6,7,8-tetrahydro-pyrido[4,3-d]pyrimidine hydrochloride], the Ki in assay [1] is 1.9 nM; in assay [2], 1950 nM; in assay [3], 50 nM; in assay [4] it was more than 10000 nM; in assay [5], 65 nM.
In the same order, the values of `Fc1ccc(-c2nc(N3CCOCC3)nc3c2CNCC3)cc1` [Example 42, 4-(4-Fluoro-phenyl)-2-morpholin-4-yl-5,6,7,8-tetrahydro-pyrido[4,3-d]pyrimidine] are 20 nM, 9770 nM, 2050 nM, more than 10000 nM and 500 nM.
As to `CC(C)N(c1nc2c(c(-c3ccc(F)cc3)n1)CNCC2)C(C)C` [Example 43, [4-(4-Fluoro-phenyl)-5,6,7,8-tetrahydro-pyrido[4,3-d]pyrimidin-2-yl]-diisopropyl-amine hydrochloride], the Ki in assay [1] stood at 3 nM; in assay [2] it was 195 nM; in assay [3], 100 nM; in assay [4] it was 320 nM; in assay [5] it was 150 nM.
As for `C[C@H]1COCCN1c1nc2c(c(-c3ccc(F)cc3)n1)CNCC2` [Example 45, 4-(4-Fluoro-phenyl)-2-(3-methyl-morpholin-4-yl)-5,6,7,8-tetrahydro-pyrido[4,3-d]pyrimidine], the Ki was 24 nM in assay [1]; 3390 nM in assay [2]; 1200 nM in assay [3]; more than 10000 nM in assay [4]; 2500 nM in assay [5].
In the same order, the values of `CCNc1nc2c(c(-c3ccc(C)cc3)n1)CNCC2` [Example 48, Ethyl-(4-p-tolyl-5,6,7,8-tetrahydro-pyrido[4,3-d]pyrimidin-2-yl)-amine] are 2000 nM, more than 10000 nM, 3000 nM, more than 10000 nM and more than 10000 nM.
Consider `Cc1ccc(-c2nc(N3CCOCC3)nc3c2CNCC3)cc1` [Example 49, 2-Morpholin-4-yl-4-p-tolyl-5,6,7,8-tetrahydro-pyrido[4,3-d]pyrimidine], for which the Ki in assay [1] is 100 nM; in assay [2], 2090 nM; in assay [3], 5010 nM; in assay [4], 530 nM; in assay [5] it was 630 nM.
For `Cc1ccc(-c2nc(N3CCCCC3)nc3c2CNCC3)cc1` [Example 50, 2-Piperidin-1-yl-4-p-tolyl-5,6,7,8-tetrahydro-pyrido[4,3-d]pyrimidine], the Ki in assay [1] came out at 30 nM; in assay [2], 776 nM; in assay [3], 160 nM; in assay [4], 350 nM; in assay [5], 130 nM.
Take `Cc1ccc(-c2nc(NCc3ccccc3)nc3c2CNCC3)cc1` [Example 51, Benzyl-(4-p-tolyl-5,6,7,8-tetrahydro-pyrido[4,3-d]pyrimidin-2-yl)-amine]: the Ki in assay [1] stood at 75 nM; in assay [2], 912 nM; in assay [3] it was 700 nM; in assay [4] it was 320 nM; in assay [5], 100 nM.
For the compound `Cc1ccc(-c2nc(N3CCCC3)nc3c2CN(C)CC3)cc1` [Example 52, 6-Methyl-2-pyrrolidin-1-yl-4-p-tolyl-5,6,7,8-tetrahydro-pyrido[4,3-d]pyrimidine], the Ki is 120 nM in assay [1]; 977 nM in assay [2]; 500 nM in assay [3]; more than 10000 nM in assay [4]; 500 nM in assay [5].
As to `CCN(CC)c1nc2c(c(-c3ccc(Cl)cc3)n1)CCNCC2` [Example 60, [4-(4-Chloro-phenyl)-6,7,8,9-tetrahydro-5H-pyrimido[4,5-d]azepin-2-yl]-diethyl-amine], the Ki was 20 nM in assay [1]; more than 10000 nM in assay [2]; 10 nM in assay [3]; 41 nM in assay [4]; 100 nM in assay [5].
For `Cc1ccc(-c2nc(N(C)C)nc3c2CNCC3)cc1` [Example 61, Dimethyl-(4-p-tolyl-5,6,7,8-tetrahydro-pyrido[4,3-d]pyrimidin-2-yl)-amine] the same measures were 420 nM, 2290 nM, 620 nM, 9000 nM and 5000 nM.

The record behind these values is patent US8829011B2 (Janssen Pharmaceutica NV, priority 2008, dated 2014).
